Assay results: ChEMBL document CHEMBL4507261, “Data for DCP probe A-192621” (2021)

How the values were obtained:
[1] = molecular target: Cyclin-dependent kinase 3 (Homo sapiens) (UniProt Q00526); conditions: Compound concentration 1000.0 nM
[2] = molecular target: Calcium/calmodulin-dependent protein kinase type II subunit beta (Homo sapiens) (UniProt Q13554); conditions: Compound concentration 1000.0 nM
[3] = molecular target: Dual specificity protein kinase CLK2 (Homo sapiens) (UniProt P49760); conditions: Compound concentration 1000.0 nM
[4] = molecular target: Calcium/calmodulin-dependent protein kinase type 1 (Homo sapiens) (UniProt Q14012); conditions: Compound concentration 1000.0 nM
[5] = molecular target: Tyrosine-protein kinase TXK (Homo sapiens) (UniProt P42681); conditions: Compound concentration 1000.0 nM
[6] = molecular target: Serine/threonine-protein kinase WNK1 (Homo sapiens) (UniProt Q9H4A3); conditions: Compound concentration 1000.0 nM
[7] = molecular target: Cannabinoid receptor 2 (Homo sapiens) (UniProt P34972); test: CB2 (h) Eurofins-Cerep binding assay; set-up: ligand concentration 0.8 nM; conditions: filed as agonist, Compound concentration 10.0 uM
[8] = molecular target: Casein kinase I isoform gamma-2 (Homo sapiens) (UniProt P78368); conditions: Compound concentration 1000.0 nM
[9] = molecular target: Serine/threonine-protein kinase PAK 5 (Homo sapiens) (UniProt Q9P286); conditions: Compound concentration 1000.0 nM
[10] = molecular target: Prostaglandin G/H synthase 1 (Homo sapiens) (UniProt P23219); test: COX1(h) Eurofins-Cerep enzyme and uptake assay; conditions: Compound concentration 10.0 uM
[11] = molecular target: Non-receptor tyrosine-protein kinase TYK2 (Homo sapiens) (UniProt P29597); conditions: Compound concentration 1000.0 nM
[12] = molecular target: Ephrin type-A receptor 2 (Homo sapiens) (UniProt P29317); conditions: Compound concentration 1000.0 nM
[13] = test system: Hepatocyte growth factor receptor (Homo sapiens), P08581 [Y1235D]; conditions: Compound concentration 1000.0 nM
[14] = molecular target: Phosphorylase b kinase regulatory subunit alpha, liver isoform (Homo sapiens) (UniProt P46019); conditions: Compound concentration 1000.0 nM
[15] = molecular target: Testis-specific serine/threonine-protein kinase 1 (Homo sapiens) (UniProt Q9BXA7); conditions: Compound concentration 1000.0 nM
[16] = molecular target: Substance-K receptor (Homo sapiens) (UniProt P21452); test: NK2 (h) Eurofins-Cerep binding assay; set-up: ligand concentration 0.1 nM; conditions: filed as agonist, Compound concentration 10.0 uM
[17] = molecular target: Atypical kinase COQ8A, mitochondrial (Homo sapiens) (UniProt Q8NI60); conditions: Compound concentration 1000.0 nM
[18] = test system: Tyrosine-protein kinase ABL1 (Homo sapiens), P00519 [F317L]; conditions: Compound concentration 1000.0 nM
[19] = molecular target: Type-2 angiotensin II receptor (Homo sapiens) (UniProt P50052); test: AT2 (h) Eurofins-Cerep binding assay; conditions: filed as agonist, Compound concentration 10.0 uM
[20] = molecular target: Activin receptor type-1-like (Homo sapiens) (UniProt P37023); conditions: Compound concentration 1000.0 nM
[21] = molecular target: 5-hydroxytryptamine receptor 1A (Homo sapiens) (UniProt P08908); test: 5-HT1A (h) Eurofins-Cerep binding assay; set-up: ligand concentration 0.5 nM; conditions: filed as agonist, Compound concentration 10.0 uM
[22] = molecular target: GABA-A receptor; anion channel (Rattus norvegicus) (UniProt O09028+P15431+P18506+P18508+P19969+P20236+P23574+P23576+P28471+P28473+P30191+P62813+P63079+P63138+Q91ZM7+Q9ES14); test: BZD (central) Eurofins-Cerep binding assay; assay type: protein-complex assay; set-up: ligand concentration 0.4 nM; conditions: filed as agonist, Compound concentration 10.0 uM
[23] = molecular target: NUAK family SNF1-like kinase 2 (Homo sapiens) (UniProt Q9H093); conditions: Compound concentration 1000.0 nM
[24] = molecular target: Casein kinase I isoform epsilon (Homo sapiens) (UniProt P49674); conditions: Compound concentration 1000.0 nM
[25] = molecular target: Misshapen-like kinase 1 (Homo sapiens) (UniProt Q8N4C8); conditions: Compound concentration 1000.0 nM
[26] = molecular target: Muscarinic acetylcholine receptor M1 (Homo sapiens) (UniProt P11229); test: M1 (h) Eurofins-Cerep binding assay; set-up: ligand concentration 2 nM; conditions: filed as antagonist, Compound concentration 10.0 uM
[27] = molecular target: Ankyrin repeat and protein kinase domain-containing protein 1 (Homo sapiens) (UniProt Q8NFD2); conditions: Compound concentration 1000.0 nM
[28] = molecular target: Ephrin type-A receptor 6 (Homo sapiens) (UniProt Q9UF33); conditions: Compound concentration 1000.0 nM
[29] = molecular target: Interleukin-1 receptor-associated kinase 3 (Homo sapiens) (UniProt Q9Y616); conditions: Compound concentration 1000.0 nM
[30] = molecular target: Inhibitor of nuclear factor kappa-B kinase subunit epsilon (Homo sapiens) (UniProt Q14164); conditions: Compound concentration 1000.0 nM
[31] = molecular target: Serine/threonine-protein kinase 32A (Homo sapiens) (UniProt Q8WU08); conditions: Compound concentration 1000.0 nM
[32] = molecular target: 5-hydroxytryptamine receptor 2B (Homo sapiens) (UniProt P41595); test: 5-HT2B (h) Eurofins-Cerep binding assay; set-up: ligand concentration 0.2 nM; conditions: filed as agonist, Compound concentration 10.0 uM
[33] = molecular target: Calcium-dependent protein kinase 1 (Plasmodium falciparum) (UniProt P62344); conditions: Compound concentration 1000.0 nM
[34] = molecular target: Mitogen-activated protein kinase kinase kinase 15 (Homo sapiens) (UniProt Q6ZN16); conditions: Compound concentration 1000.0 nM
[35] = test system: Phosphatidylinositol 4,5-bisphosphate 3-kinase catalytic subunit alpha isoform (Homo sapiens), P42336 [E542K]; conditions: Compound concentration 1000.0 nM
[36] = test system: eIF-2-alpha kinase GCN2 (Homo sapiens), Q9P2K8 [S808G]; conditions: Compound concentration 1000.0 nM
[37] = molecular target: GABA-A receptor; alpha-1/beta-2/gamma-2 (Homo sapiens) (UniProt P14867+P47870+P18507); test: GABAA1 (h) (alpha1,beta2,gamma2) Eurofins-Cerep binding assay; assay type: protein-complex assay; set-up: ligand concentration 15 nM; conditions: filed as agonist, Compound concentration 10.0 uM
[38] = molecular target: Angiotensin-converting enzyme (Homo sapiens) (UniProt P12821); test: ACE (h) Eurofins-Cerep enzyme and uptake assay; conditions: Compound concentration 10.0 uM
[39] = test system: Phosphatidylinositol 4,5-bisphosphate 3-kinase catalytic subunit alpha isoform (Homo sapiens), P42336 [I800L]; conditions: Compound concentration 1000.0 nM
[40] = molecular target: Mitogen-activated protein kinase kinase kinase 7 (Homo sapiens) (UniProt O43318); conditions: Compound concentration 1000.0 nM
[41] = molecular target: Phosphatidylinositol 4-phosphate 5-kinase type-1 alpha (Homo sapiens) (UniProt Q99755); conditions: Compound concentration 1000.0 nM
[42] = molecular target: 5-hydroxytryptamine receptor 2A (Homo sapiens) (UniProt P28223); test: 5-HT2A (h) Eurofins-Cerep binding assay; set-up: ligand concentration 0.5 nM; conditions: filed as antagonist, Compound concentration 10.0 uM
[43] = molecular target: LIM domain kinase 2 (Homo sapiens) (UniProt P53671); conditions: Compound concentration 1000.0 nM

Sequence of Serine/threonine-protein kinase 32A (Homo sapiens) (Q8WU08 whole entry): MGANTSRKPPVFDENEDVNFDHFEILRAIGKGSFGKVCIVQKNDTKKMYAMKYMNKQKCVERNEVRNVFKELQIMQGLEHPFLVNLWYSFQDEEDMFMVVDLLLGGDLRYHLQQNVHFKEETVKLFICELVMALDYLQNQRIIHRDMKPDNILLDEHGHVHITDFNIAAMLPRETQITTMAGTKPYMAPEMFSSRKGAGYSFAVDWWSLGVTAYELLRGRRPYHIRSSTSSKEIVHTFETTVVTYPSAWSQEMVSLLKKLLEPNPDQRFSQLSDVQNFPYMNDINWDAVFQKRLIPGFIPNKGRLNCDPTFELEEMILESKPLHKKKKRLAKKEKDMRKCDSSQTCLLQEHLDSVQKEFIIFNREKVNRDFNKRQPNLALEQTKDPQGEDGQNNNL
Sequence of Ankyrin repeat and protein kinase domain-containing protein 1 (Homo sapiens) (Q8NFD2 whole entry, the tested form may be a part): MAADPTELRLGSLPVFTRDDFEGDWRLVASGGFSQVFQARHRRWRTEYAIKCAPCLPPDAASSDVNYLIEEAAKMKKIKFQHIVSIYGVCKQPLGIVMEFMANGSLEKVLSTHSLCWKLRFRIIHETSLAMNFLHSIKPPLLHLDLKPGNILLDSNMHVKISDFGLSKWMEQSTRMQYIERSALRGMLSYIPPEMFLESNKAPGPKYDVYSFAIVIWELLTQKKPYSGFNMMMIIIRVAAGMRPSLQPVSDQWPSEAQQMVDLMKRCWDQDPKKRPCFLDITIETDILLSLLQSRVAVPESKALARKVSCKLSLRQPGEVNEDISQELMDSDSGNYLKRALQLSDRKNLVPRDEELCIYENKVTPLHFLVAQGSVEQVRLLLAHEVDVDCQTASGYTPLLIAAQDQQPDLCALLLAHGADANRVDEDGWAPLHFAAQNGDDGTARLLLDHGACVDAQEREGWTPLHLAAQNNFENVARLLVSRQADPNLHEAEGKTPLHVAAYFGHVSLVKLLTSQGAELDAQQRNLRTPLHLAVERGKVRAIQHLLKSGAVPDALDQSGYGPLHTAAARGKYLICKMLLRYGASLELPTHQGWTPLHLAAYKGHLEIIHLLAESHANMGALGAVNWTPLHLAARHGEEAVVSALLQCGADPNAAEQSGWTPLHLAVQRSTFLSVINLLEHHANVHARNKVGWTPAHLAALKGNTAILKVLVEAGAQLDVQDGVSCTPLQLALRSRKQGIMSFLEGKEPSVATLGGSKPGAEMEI
Sequence of Mitogen-activated protein kinase kinase kinase 15 (Homo sapiens) (Q6ZN16 whole entry, canonical isoform): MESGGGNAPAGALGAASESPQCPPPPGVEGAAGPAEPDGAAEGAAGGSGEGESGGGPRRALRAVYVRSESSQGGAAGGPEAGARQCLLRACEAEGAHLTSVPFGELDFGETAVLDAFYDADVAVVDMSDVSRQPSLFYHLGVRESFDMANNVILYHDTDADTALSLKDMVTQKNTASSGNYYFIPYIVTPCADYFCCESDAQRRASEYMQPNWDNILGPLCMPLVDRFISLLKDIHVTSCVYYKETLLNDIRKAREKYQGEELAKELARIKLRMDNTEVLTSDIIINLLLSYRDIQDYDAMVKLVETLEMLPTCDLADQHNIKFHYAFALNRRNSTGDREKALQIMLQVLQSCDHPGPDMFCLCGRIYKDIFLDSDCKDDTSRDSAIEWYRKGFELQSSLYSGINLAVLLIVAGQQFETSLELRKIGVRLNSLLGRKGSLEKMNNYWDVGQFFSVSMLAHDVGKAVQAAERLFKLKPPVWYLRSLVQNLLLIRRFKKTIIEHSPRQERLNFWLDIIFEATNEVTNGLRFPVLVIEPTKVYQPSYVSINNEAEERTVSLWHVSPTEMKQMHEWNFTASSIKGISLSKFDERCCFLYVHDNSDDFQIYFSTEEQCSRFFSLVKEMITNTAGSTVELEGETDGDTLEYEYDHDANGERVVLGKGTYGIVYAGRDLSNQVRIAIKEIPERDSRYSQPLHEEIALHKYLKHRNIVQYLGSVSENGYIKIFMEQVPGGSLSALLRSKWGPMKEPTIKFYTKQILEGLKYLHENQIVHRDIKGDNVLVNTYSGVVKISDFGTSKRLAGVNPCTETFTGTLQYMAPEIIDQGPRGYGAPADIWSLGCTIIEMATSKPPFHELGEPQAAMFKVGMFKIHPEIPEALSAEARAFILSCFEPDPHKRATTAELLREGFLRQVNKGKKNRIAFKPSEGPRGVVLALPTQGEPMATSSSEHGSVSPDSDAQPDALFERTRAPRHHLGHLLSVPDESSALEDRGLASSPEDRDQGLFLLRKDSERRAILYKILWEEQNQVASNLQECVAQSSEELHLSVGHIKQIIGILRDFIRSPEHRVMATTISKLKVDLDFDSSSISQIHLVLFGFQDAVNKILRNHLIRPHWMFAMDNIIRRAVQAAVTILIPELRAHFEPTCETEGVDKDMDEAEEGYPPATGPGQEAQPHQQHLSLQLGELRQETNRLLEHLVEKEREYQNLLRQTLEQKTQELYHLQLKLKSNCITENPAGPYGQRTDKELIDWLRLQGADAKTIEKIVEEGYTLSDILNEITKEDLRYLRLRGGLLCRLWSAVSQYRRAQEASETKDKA
Sequence of eIF-2-alpha kinase GCN2 (Homo sapiens), Q9P2K8 [S808G] (Q9P2K8 whole entry S808G): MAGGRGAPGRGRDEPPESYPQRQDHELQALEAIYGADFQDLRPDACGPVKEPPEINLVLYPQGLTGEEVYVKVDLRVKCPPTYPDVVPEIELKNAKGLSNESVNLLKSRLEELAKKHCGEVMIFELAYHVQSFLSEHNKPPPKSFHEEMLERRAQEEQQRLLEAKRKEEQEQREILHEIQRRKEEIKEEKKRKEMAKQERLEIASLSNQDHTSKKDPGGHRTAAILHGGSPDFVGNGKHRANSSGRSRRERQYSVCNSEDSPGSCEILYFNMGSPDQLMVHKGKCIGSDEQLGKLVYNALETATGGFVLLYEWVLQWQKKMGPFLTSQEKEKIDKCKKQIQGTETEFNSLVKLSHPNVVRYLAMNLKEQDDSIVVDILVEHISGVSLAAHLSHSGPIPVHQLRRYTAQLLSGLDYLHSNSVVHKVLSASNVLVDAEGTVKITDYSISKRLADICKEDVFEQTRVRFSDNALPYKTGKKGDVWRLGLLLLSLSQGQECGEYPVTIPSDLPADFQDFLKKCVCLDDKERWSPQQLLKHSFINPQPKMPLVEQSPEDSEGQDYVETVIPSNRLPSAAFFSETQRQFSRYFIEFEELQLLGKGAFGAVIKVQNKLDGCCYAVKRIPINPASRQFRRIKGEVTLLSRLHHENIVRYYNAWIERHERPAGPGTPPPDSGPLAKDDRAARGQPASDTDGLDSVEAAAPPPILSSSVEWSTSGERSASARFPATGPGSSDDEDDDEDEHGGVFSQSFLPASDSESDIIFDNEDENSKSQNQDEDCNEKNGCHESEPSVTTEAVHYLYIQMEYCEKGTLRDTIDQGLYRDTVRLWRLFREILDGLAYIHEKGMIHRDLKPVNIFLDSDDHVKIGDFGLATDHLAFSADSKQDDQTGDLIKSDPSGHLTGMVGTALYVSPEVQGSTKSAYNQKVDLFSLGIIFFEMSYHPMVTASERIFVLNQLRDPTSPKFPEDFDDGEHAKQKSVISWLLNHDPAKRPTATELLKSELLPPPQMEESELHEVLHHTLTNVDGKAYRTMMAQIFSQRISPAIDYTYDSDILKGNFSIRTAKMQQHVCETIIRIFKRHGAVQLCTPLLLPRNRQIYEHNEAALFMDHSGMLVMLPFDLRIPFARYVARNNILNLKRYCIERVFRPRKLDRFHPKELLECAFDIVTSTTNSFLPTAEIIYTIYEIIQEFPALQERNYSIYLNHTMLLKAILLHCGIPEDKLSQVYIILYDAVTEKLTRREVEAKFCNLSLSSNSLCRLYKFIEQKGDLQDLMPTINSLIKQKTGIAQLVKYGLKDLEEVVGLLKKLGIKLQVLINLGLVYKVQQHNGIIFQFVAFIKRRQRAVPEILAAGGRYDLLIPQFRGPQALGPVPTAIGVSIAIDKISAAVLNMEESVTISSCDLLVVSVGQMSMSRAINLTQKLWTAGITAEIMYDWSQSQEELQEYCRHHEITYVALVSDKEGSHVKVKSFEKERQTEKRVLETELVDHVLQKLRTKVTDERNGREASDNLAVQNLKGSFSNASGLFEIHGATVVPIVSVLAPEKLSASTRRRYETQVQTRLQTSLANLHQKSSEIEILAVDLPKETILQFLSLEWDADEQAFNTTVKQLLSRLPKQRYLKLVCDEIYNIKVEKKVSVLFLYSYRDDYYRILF
Sequence of Calcium-dependent protein kinase 1 (Plasmodium falciparum) (P62344 2-524 limits assumed): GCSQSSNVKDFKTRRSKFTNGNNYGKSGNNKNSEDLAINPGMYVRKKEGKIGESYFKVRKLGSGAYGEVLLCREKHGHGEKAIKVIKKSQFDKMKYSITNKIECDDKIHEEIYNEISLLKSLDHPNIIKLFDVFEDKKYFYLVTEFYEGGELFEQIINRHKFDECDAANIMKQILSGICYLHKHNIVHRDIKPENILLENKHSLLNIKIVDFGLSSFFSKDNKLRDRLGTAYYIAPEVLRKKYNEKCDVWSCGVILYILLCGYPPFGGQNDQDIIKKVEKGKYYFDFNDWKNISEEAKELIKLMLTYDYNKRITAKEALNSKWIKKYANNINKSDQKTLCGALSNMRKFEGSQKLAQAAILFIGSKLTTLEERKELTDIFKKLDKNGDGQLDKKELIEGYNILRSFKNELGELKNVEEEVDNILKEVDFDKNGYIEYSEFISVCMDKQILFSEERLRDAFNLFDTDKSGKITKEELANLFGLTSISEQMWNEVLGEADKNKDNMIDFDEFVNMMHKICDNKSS
Sequence of Casein kinase I isoform epsilon (Homo sapiens) (P49674 whole entry, looked up, canonical isoform): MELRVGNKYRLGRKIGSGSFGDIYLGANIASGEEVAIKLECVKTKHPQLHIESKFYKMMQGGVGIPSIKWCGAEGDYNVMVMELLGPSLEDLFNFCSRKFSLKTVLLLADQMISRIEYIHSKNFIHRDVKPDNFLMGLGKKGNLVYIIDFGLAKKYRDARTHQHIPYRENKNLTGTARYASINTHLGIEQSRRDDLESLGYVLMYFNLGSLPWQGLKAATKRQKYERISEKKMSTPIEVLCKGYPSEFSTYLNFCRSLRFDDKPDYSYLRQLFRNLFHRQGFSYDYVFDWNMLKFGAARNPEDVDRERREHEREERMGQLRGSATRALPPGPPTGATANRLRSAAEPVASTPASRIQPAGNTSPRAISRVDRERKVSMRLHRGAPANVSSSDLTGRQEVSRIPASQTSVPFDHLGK

Structure (SMILES): CCCOc1ccc([C@@H]2[C@@H](C(=O)O)[C@H](c3ccc4c(c3)OCO4)CN2CC(=O)Nc2c(CC)cccc2CC)cc1 [A-1806262]
- residual activity [1]: 100%
- residual activity [2]: 88%
- residual activity [3]: 100%
- residual activity [4]: 100%
- residual activity [5]: 100%
- residual activity [6]: 91%
- % Inhibition of Control Specific Binding (Mean n=2) [7]: 14.6%
- residual activity [8]: 96%
- residual activity [9]: 88%
- % Inhibition of Control Values (Mean n=2) [10]: 2.3%
- residual activity [11]: 74%
- residual activity [12]: 100%
- residual activity [13]: 99%
- residual activity [14]: 74%
- residual activity [15]: 100%
- % Inhibition of Control Specific Binding (Mean n=2) [16]: -3%
- residual activity [17]: 100%
- residual activity [18]: 81%
- % Inhibition of Control Specific Binding (Mean n=2) [19]: 20.8%
- residual activity [20]: 100%
- % Inhibition of Control Specific Binding (Mean n=2) [21]: -3.8%
- % Inhibition of Control Specific Binding (Mean n=2) [22]: -12.9%
- residual activity [23]: 73%
- residual activity [24]: 98%
- residual activity [25]: 78%
- % Inhibition of Control Specific Binding (Mean n=2) [26]: 3.7%
- residual activity [27]: 73%
- residual activity [28]: 98%
- residual activity [29]: 100%
- residual activity [30]: 85%
- residual activity [31]: 85%
- % Inhibition of Control Specific Binding (Mean n=2) [32]: -16.5%
- residual activity [33]: 64%
- residual activity [34]: 99%
- residual activity [35]: 81%
- residual activity [36]: 100%
- % Inhibition of Control Specific Binding (Mean n=2) [37]: -33.6%
- % Inhibition of Control Values (Mean n=2) [38]: -13.7%
- residual activity [39]: 71%
- residual activity [40]: 97%
- residual activity [41]: 90%
- % Inhibition of Control Specific Binding (Mean n=2) [42]: -2.9%
- residual activity [43]: 64%

Structure (SMILES): CCCOc1ccc([C@H]2[C@H](C(=O)O)[C@@H](c3ccc4c(c3)OCO4)CN2CC(=O)Nc2c(CC)cccc2CC)cc1 [A-192621]
- residual activity [1]: 95%
- residual activity [2]: 99%
- residual activity [3]: 91%
- residual activity [4]: 93%
- residual activity [5]: 85%
- residual activity [6]: 89%
- % Inhibition of Control Specific Binding (Mean n=2) [7]: 33.6%
- residual activity [8]: 100%
- residual activity [9]: 73%
- % Inhibition of Control Values (Mean n=2) [10]: 13.2%
- residual activity [11]: 51%
- residual activity [12]: 100%
- residual activity [13]: 100%
- residual activity [14]: 86%
- residual activity [15]: 92%
- % Inhibition of Control Specific Binding (Mean n=2) [16]: 18.3%
- residual activity [17]: 100%
- residual activity [18]: 68%
- % Inhibition of Control Specific Binding (Mean n=2) [19]: 2.5%
- residual activity [20]: 99%
- % Inhibition of Control Specific Binding (Mean n=2) [21]: -5.9%
- % Inhibition of Control Specific Binding (Mean n=2) [22]: -35.5%
- residual activity [23]: 57%
- residual activity [24]: 100%
- residual activity [25]: 68%
- % Inhibition of Control Specific Binding (Mean n=2) [26]: -11.2%
- residual activity [27]: 65%
- residual activity [28]: 100%
- residual activity [29]: 100%
- residual activity [30]: 68%
- residual activity [31]: 93%
- % Inhibition of Control Specific Binding (Mean n=2) [32]: -1.9%
- residual activity [33]: 88%
- residual activity [34]: 73%
- residual activity [35]: 75%
- residual activity [36]: 90%
- % Inhibition of Control Specific Binding (Mean n=2) [37]: -34%
- % Inhibition of Control Values (Mean n=2) [38]: -12.6%
- residual activity [39]: 81%
- residual activity [40]: 100%
- residual activity [41]: 82%
- % Inhibition of Control Specific Binding (Mean n=2) [42]: 5.5%
- residual activity [43]: 100%
